Holding throughout (test): fluorescence titration
Assay [1] deals with 22Kit (DNA, G4) AGGGAGGGCGCTGGGAGGAGGG
To be noted: 153 mM Na+, 2.7 mM K+, 2.5 mM Mg2+, pH 7.4, 25 °C, dye 3 μM, apparent.

Assay [2] has as its system 26Tel (DNA, G4) TTAGGGTTAGGGTTAGGGTTAGGGTT
To be noted: 2.5 mM Mg2+, 3 μM dye, apparent.

Assay [3] deals with dsDNA (DNA, duplex) GGGTTACTACGAACTGG/CCAGTTCGTAGTAACCC
Particulars: 153 mM Na+, 2.7 mM K+, 2.5 mM Mg2+, pH 7.4, 25 °C, dye 3 μM, apparent.

Assay [4] deals with 18Ras (RNA, G4) GGGAGGGGCGGGUCUGGG
Particulars: 140 mM K+, 10 mM Na+, 2.5 mM Mg2+; PBS140KM (phosphate) pH 7.4, 25 °C; 3 μM dye; apparent.

For assay [5] the test system is unchanged. Particulars: 2.5 mM Mg2+, pH 7.4, 25 °C, dye 3 μM, apparent.
Assay [6] has as its system 27Myc (DNA, G4) TGGGGAGGGTGGGGAGGGTGGGGAAGG
To be noted: 140 mM K+, 10 mM Na+, 2.5 mM Mg2+; PBS140KM (phosphate) pH 7.4, 25 °C; 3 μM dye; apparent.

Assay [7] concerns 22Kit (DNA, G4) AGGGAGGGCGCTGGGAGGAGGG
To be noted: 140 mM K+, 10 mM Na+, 2.5 mM Mg2+; PBS140KM (phosphate) pH 7.4, 25 °C; 3 μM dye; apparent.

Assay [8] relates to dsDNA (DNA, duplex) GGGTTACTACGAACTGG/CCAGTTCGTAGTAACCC
Particulars: 140 mM K+, 10 mM Na+, 2.5 mM Mg2+; PBS140KM (phosphate) pH 7.4, 25 °C; 3 μM dye; apparent.

Assay [9] relates to 20Src (DNA, G4) GGGCGGCGGGCTGGGCGGGG
Particulars: 2.5 mM Mg2+, 3 μM dye, apparent.

Assay [10] concerns 22AG (DNA, G4) AGGGTTAGGGTTAGGGTTAGGG
To be noted: 2.5 mM Mg2+, 3 μM dye, apparent.

In assay [11] the test system is 27Myc (DNA, G4) TGGGGAGGGTGGGGAGGGTGGGGAAGG
Particulars: 153 mM Na+, 2.7 mM K+, 2.5 mM Mg2+, pH 7.4, 25 °C, dye 3 μM, apparent.

For assay [12], the system named is 26Tel (DNA, G4) TTAGGGTTAGGGTTAGGGTTAGGGTT
Particulars: 153 mM Na+, 2.7 mM K+, 2.5 mM Mg2+, pH 7.4, 25 °C, dye 3 μM, apparent.

The test system of assay [13] is 20Src (DNA, G4) GGGCGGCGGGCTGGGCGGGG
To be noted: 2.5 mM Mg2+, pH 7.4, 25 °C, dye 3 μM, oligonucleotide to 15 μM, apparent, n.d., assumed.

In assay [14] the test system is 22AG (DNA, G4) AGGGTTAGGGTTAGGGTTAGGG
Particulars: 2.5 mM Mg2+, pH 7.4, 25 °C, dye 3 μM, apparent.

[15] abbreviates: 140 mM K+, 10 mM Na+, PBS140KM (phosphate) pH 7.4, 25 °C.
Where [16] appears, read: 153 mM Na+, 2.7 mM K+, PBS153NM (phosphate) pH 7.4, 25 °C.
Setting [17] is: 153 mM Na+, 2.7 mM K+, PBS153NM (phosphate).
Where [18] appears, read: PBS153NM, oligonucleotide to 15 μM, n.d., assumed.
Where [19] appears, read: 153 mM Na+, 2.7 mM K+, PBS153NM.
[20] abbreviates: 153 mM Na+, 2.7 mM K+, PBS153NM, oligonucleotide to 15 μM, n.d., assumed.
Setting [21] is: 140 mM K+, 10 mM Na+, PBS140KM, oligonucleotide to 15 μM, n.d., assumed.

Drawing on article PMC7663003 (2020), this text covers Kd for six molecules.

SMILES strings stand for the structures. Where only a bound is given, the exact number is not on record here.

Take `Cc1ccc2c(c1)sc(-c1ccc(N(C)C)cc1)[n+]2CCNC(=O)NCCCNCCCCNCCCN`: the Kd in assay [1] (PBS153NM (phosphate)) stood at 7.4 ± 3.9 µM; in assay [2] (setting [15]), 2.4 ± 0.4 µM; in assay [2] (setting [16]) it was 4.6 ± 0.3 µM; in assay [3] (PBS153NM (phosphate)) it was 9.4 ± 1.0 µM; in [4], 12.8 ± 1.9 µM; in assay [5] (setting [17]) it was 14.7 ± 3.2 µM. Also, the Kd was 6.8 ± 0.9 µM in assay [6]; 6.8 ± 0.6 µM in [7]; 16.0 ± 1.0 µM in [8]; 18.8 ± 2.4 µM in assay [9] (setting [15]); 4.1 ± 0.5 µM in [9] (setting [16]); 5.4 ± 1.0 µM in assay [10] (setting [15]). In addition, the Kd in assay [10] (setting [16]) amounted to 8.2 ± 0.8 µM; in assay [11] (PBS153NM (phosphate)), 5.3 ± 0.8 µM.

On to `Cc1ccc2c(c1)sc(-c1ccc(N(C)C)cc1)[n+]2C`, for which the Kd in assay [1] (PBS153NM (phosphate)) is 4.8 ± 0.8 µM; in [2] (setting [15]), 4.0 ± 0.4 µM; in assay [3] (setting [18]), over 40 µM; in assay [4], 19.0 ± 2.9 µM; in assay [5] (setting [17]), 15.3 ± 1.6 µM; in assay [6], 6.9 ± 0.8 µM. The Kd was 9.9 ± 1.2 µM in assay [7]; 5.0 ± 0.5 µM in assay [10] (setting [15]); 29.5 ± 5.6 µM in assay [12] (PBS153NM (phosphate)); 13.5 ± 5.1 µM in [11] (PBS153NM (phosphate)); over 40 µM in assay [13] (140 mM K+, 10 mM Na+, PBS140KM); over 40 µM in assay [13] (setting [19]).

Regarding `Cc1ccc2c(c1)sc(-c1ccc(N(C)C)cc1)[n+]2CCO`, the Kd is 12.3 ± 1.8 µM in assay [1] (PBS153NM (phosphate)); 11.1 ± 1.5 µM in assay [2] (setting [15]); over 40 µM in assay [3] (setting [18]); 25.0 ± 3.1 µM in [4]; 28.1 ± 4.0 µM in [5] (setting [17]); over 40 µM in assay [14] (setting [20]). Moreover, the Kd in assay [6] is 19.9 ± 0.9 µM; in [7], 34.9 ± 6.6 µM; in assay [10] (setting [15]) it was 20.1 ± 1.5 µM; in [12] (setting [18]), over 40 µM; in assay [11] (PBS153NM (phosphate)) it was 14.1 ± 1.5 µM; in assay [13] (140 mM K+, 10 mM Na+, PBS140KM), over 40 µM. Besides, the Kd in assay [13] (setting [19]) is over 40 µM.

Turning to `Cc1ccc2c(c1)sc(-c1ccc(N(C)C)cc1)[n+]2CCNC(=O)COCC(=O)NCCOCCOCCOCCOCCOCCOCCOCCOCCOCCOCCOCCN`, the Kd in assay [1] (setting [18]) was over 40 µM; in assay [2] (setting [15]) it was 23.9 ± 3.1 µM; in assay [3] (setting [18]), over 40 µM; in [4] it was 15.3 ± 1.9 µM; in [5] (setting [17]), 16.3 ± 1.8 µM; in [14] (setting [21]), over 40 µM. The Kd in assay [14] (setting [17]) was 20.3 ± 9.9 µM; in assay [6], 13.4 ± 0.8 µM; in assay [7], 36.6 ± 4.4 µM; in [9] (setting [15]), 20.2 ± 2.3 µM; in [12] (setting [18]), over 40 µM; in assay [11] (PBS153NM (phosphate)) it was 29.1 ± 2.5 µM. For the same molecule, in assay [13] (setting [19]), the Kd is over 40 µM.

Regarding `Cc1ccc2c(c1)sc(-c1ccc(N(C)C)cc1)[n+]2CCN`, the Kd in [1] (setting [18]) is over 40 µM; in assay [2] (setting [15]), 9.7 ± 5.5 µM; in assay [3] (setting [18]) it was over 40 µM; in [5] (setting [21]), over 40 µM; in assay [5] (setting [20]), over 40 µM; in assay [14] (setting [21]), over 40 µM. Further, the Kd is 23.6 ± 9.1 µM in assay [14] (setting [17]); 8.9 ± 3.5 µM in assay [7]; over 40 µM in assay [12] (setting [18]); over 40 µM in [11] (setting [18]); over 40 µM in assay [13] (140 mM K+, 10 mM Na+, PBS140KM); over 40 µM in assay [13] (setting [19]).

Consider `Cc1ccc2c(c1)sc(-c1ccc(N(C)C)cc1)[n+]2CCNC(=O)COCCOCCN`, for which the Kd in assay [1] (setting [18]) was over 40 µM; in [2] (setting [15]) it was 5.3 ± 0.4 µM; in assay [3] (setting [18]), over 40 µM; in assay [4], 11.8 ± 0.6 µM; in assay [5] (setting [17]), 15.5 ± 1.7 µM; in [14] (setting [20]), over 40 µM. In addition, the Kd amounted to 8.7 ± 0.7 µM in [6]; 20.5 ± 1.4 µM in assay [7]; 38.6 ± 5.9 µM in assay [9] (setting [15]); 11.8 ± 1.4 µM in assay [10] (setting [15]); 34.3 ± 4.0 µM in assay [12] (PBS153NM (phosphate)); 10.8 ± 1.3 µM in assay [11] (PBS153NM (phosphate)). Besides, the Kd in [13] (setting [19]) is over 40 µM.
